Laboratory results reported in the CheMixHub ionic liquid set.
Several values for one entry are separate records, joined by “and”; a condition that tells them apart may be missing. Identical values can stand only once. ± gives the uncertainty stated by the source.

Test: xn = mol fraction of the nth substance listed
Conditions: 100 kPa; for electrical conductivity: frequency 0.003 MHz

CC1COC(=O)O1 (configuration not stated) + CCCC[n+]1ccn(C)c1.F[B-](F)(F)F
Conditions	electrical conductivity [S/m]	viscosity
296.9 K, x2 = 0.4	0.993 ± 0.06	–
297 K, x2 = 0.6	0.747 ± 0.045	–
297 K, x2 = 0.8	0.59 ± 0.035	–
297.1 K, x2 = 0.2	1.26 ± 0.076	–
297.1 K, x2 = 0.9	0.441 ± 0.026	–
298.1 K, x2 = 0.2	–	6.8 ± 0.7 mPa·s and 6.5 ± 0.7 mPa·s
298.1 K, x2 = 0.4	–	14.8 ± 1.5 mPa·s and 14.4 ± 1.5 mPa·s
298.1 K, x2 = 0.6	–	32.4 ± 3.3 mPa·s and 32.5 ± 3.3 mPa·s
298.1 K, x2 = 0.8	–	45.9 ± 4.6 mPa·s and 46.1 ± 4.7 mPa·s
298.1 K, x2 = 0.9	–	55.6 ± 5.6 mPa·s and 55.7 ± 5.7 mPa·s
298.15 K, x2 = 0.15	–	5.2 ± 0.2 mPa·s
298.15 K, x2 = 0.2	–	6.9 ± 0.3 mPa·s
299.9 K, x2 = 0.2	1.3 ± 0.078	–
299.9 K, x2 = 0.4	1.04 ± 0.062	–
299.9 K, x2 = 0.8	0.63 ± 0.038	–
299.9 K, x2 = 0.9	0.482 ± 0.029	–
300 K, x2 = 0.6	0.794 ± 0.048	–
302.5 K, x2 = 0.9	0.522 ± 0.031	–
302.6 K, x2 = 0.2	1.32 ± 0.079	–
302.6 K, x2 = 0.6	0.84 ± 0.05	–
302.6 K, x2 = 0.8	0.675 ± 0.041	–
302.7 K, x2 = 0.4	1.08 ± 0.065	–
303 K, x2 = 0.2	–	5.6 ± 0.6 mPa·s
303 K, x2 = 0.4	–	11.5 ± 1.2 mPa·s
303 K, x2 = 0.6	–	22.4 ± 2.3 mPa·s
303 K, x2 = 0.8	–	33.1 ± 3.3 mPa·s
303 K, x2 = 0.9	–	45.7 ± 4.6 mPa·s
305.4 K, x2 = 0.8	0.72 ± 0.043	–
305.4 K, x2 = 0.9	0.564 ± 0.034	–
305.5 K, x2 = 0.2	1.34 ± 0.08	–
305.5 K, x2 = 0.4	1.13 ± 0.068	–
305.6 K, x2 = 0.6	0.882 ± 0.053	–
308.1 K, x2 = 0.2	–	5.1 ± 0.5 mPa·s
308.1 K, x2 = 0.4	–	10.1 ± 1 mPa·s
308.1 K, x2 = 0.6	–	18.8 ± 1.9 mPa·s
308.1 K, x2 = 0.8	–	25.8 ± 2.6 mPa·s
308.1 K, x2 = 0.9	–	36.5 ± 3.7 mPa·s
308.2 K, x2 = 0.2	1.36 ± 0.082	–
308.2 K, x2 = 0.4	1.17 ± 0.07	–
308.2 K, x2 = 0.6	0.93 ± 0.056	–
308.2 K, x2 = 0.8	0.759 ± 0.046	–
308.2 K, x2 = 0.9	0.607 ± 0.036	–
310.9 K, x2 = 0.2	1.4 ± 0.084	–
311 K, x2 = 0.6	0.968 ± 0.058	–
311 K, x2 = 0.8	0.803 ± 0.048	–
311 K, x2 = 0.9	0.65 ± 0.039	–
311.2 K, x2 = 0.4	1.21 ± 0.073	–
313 K, x2 = 0.2	–	4.3 ± 0.4 mPa·s
313 K, x2 = 0.4	–	8.6 ± 0.9 mPa·s
313 K, x2 = 0.6	–	15.7 ± 1.6 mPa·s
313 K, x2 = 0.8	–	21.6 ± 2.2 mPa·s
313 K, x2 = 0.9	–	31 ± 3.1 mPa·s
313.6 K, x2 = 0.4	1.25 ± 0.075	–
313.6 K, x2 = 0.6	1.01 ± 0.06	–
313.6 K, x2 = 0.8	0.846 ± 0.051	–
313.6 K, x2 = 0.9	0.691 ± 0.041	–
313.9 K, x2 = 0.2	1.41 ± 0.084	–
316.5 K, x2 = 0.6	1.05 ± 0.063	–
316.5 K, x2 = 0.8	0.892 ± 0.054	–
316.6 K, x2 = 0.9	0.74 ± 0.044	–
316.7 K, x2 = 0.2	1.43 ± 0.086	–
316.7 K, x2 = 0.4	1.29 ± 0.077	–
318.1 K, x2 = 0.2	–	3.8 ± 0.4 mPa·s
318.1 K, x2 = 0.4	–	7.6 ± 0.8 mPa·s
318.1 K, x2 = 0.6	–	12.6 ± 1.3 mPa·s
318.1 K, x2 = 0.8	–	18.5 ± 1.9 mPa·s
318.1 K, x2 = 0.9	–	25.4 ± 2.6 mPa·s
319.2 K, x2 = 0.4	1.32 ± 0.079	–
319.3 K, x2 = 0.6	1.1 ± 0.066	–
319.3 K, x2 = 0.8	0.933 ± 0.056	–
319.5 K, x2 = 0.9	0.786 ± 0.047	–
319.7 K, x2 = 0.2	1.45 ± 0.087	–
322 K, x2 = 0.8	0.979 ± 0.059	–
322 K, x2 = 0.9	0.829 ± 0.05	–
322.2 K, x2 = 0.2	1.47 ± 0.088	–
322.2 K, x2 = 0.4	1.35 ± 0.081	–
322.2 K, x2 = 0.6	1.15 ± 0.069	–
323 K, x2 = 0.2	–	3 ± 0.3 mPa·s
323 K, x2 = 0.4	–	6.5 ± 0.7 mPa·s
323 K, x2 = 0.6	–	10.6 ± 1.1 mPa·s
323 K, x2 = 0.8	–	16 ± 1.6 mPa·s
323 K, x2 = 0.9	–	22.1 ± 2.2 mPa·s
324.8 K, x2 = 0.4	1.38 ± 0.083	–
324.8 K, x2 = 0.8	1.02 ± 0.061	–
324.8 K, x2 = 0.9	0.874 ± 0.052	–
325 K, x2 = 0.6	1.18 ± 0.071	–
325.1 K, x2 = 0.2	1.49 ± 0.09	–
327.4 K, x2 = 0.4	1.41 ± 0.084	–
327.6 K, x2 = 0.6	1.22 ± 0.073	–
327.6 K, x2 = 0.8	1.06 ± 0.064	–
327.6 K, x2 = 0.9	0.921 ± 0.055	–
327.8 K, x2 = 0.2	1.51 ± 0.091	–
328.1 K, x2 = 0.2	–	2.6 ± 0.3 mPa·s
328.1 K, x2 = 0.4	–	5.8 ± 0.6 mPa·s
328.1 K, x2 = 0.6	–	9.3 ± 0.9 mPa·s
328.1 K, x2 = 0.8	–	14.2 ± 1.4 mPa·s
328.1 K, x2 = 0.9	–	19.7 ± 2 mPa·s
330.4 K, x2 = 0.6	1.25 ± 0.075	–
330.6 K, x2 = 0.2	1.53 ± 0.092	–
330.6 K, x2 = 0.4	1.44 ± 0.086	–
330.6 K, x2 = 0.8	1.11 ± 0.067	–
330.6 K, x2 = 0.9	0.971 ± 0.058	–
333 K, x2 = 0.2	–	2.4 ± 0.2 mPa·s
333 K, x2 = 0.4	–	5.4 ± 0.5 mPa·s
333 K, x2 = 0.6	–	8.2 ± 0.8 mPa·s
333 K, x2 = 0.8	–	12.4 ± 1.2 mPa·s
333 K, x2 = 0.9	–	17.2 ± 1.7 mPa·s
333.2 K, x2 = 0.4	1.46 ± 0.088	–
333.2 K, x2 = 0.6	1.29 ± 0.077	–
333.2 K, x2 = 0.8	1.15 ± 0.069	–
333.3 K, x2 = 0.9	1.01 ± 0.061	–
333.4 K, x2 = 0.2	1.56 ± 0.094	–
335.9 K, x2 = 0.6	1.33 ± 0.08	–
335.9 K, x2 = 0.8	1.19 ± 0.072	–
335.9 K, x2 = 0.9	1.06 ± 0.064	–
336.1 K, x2 = 0.2	1.55 ± 0.093	–
336.1 K, x2 = 0.4	1.49 ± 0.09	–
338.1 K, x2 = 0.2	–	2.1 ± 0.2 mPa·s
338.1 K, x2 = 0.4	–	4.9 ± 0.5 mPa·s
338.1 K, x2 = 0.6	–	7.2 ± 0.7 mPa·s
338.1 K, x2 = 0.8	–	10.6 ± 1.1 mPa·s
338.1 K, x2 = 0.9	–	15.9 ± 1.6 mPa·s
338.7 K, x2 = 0.9	1.1 ± 0.066	–
338.8 K, x2 = 0.6	1.36 ± 0.082	–
338.9 K, x2 = 0.8	1.24 ± 0.074	–
339 K, x2 = 0.4	1.52 ± 0.091	–
339.1 K, x2 = 0.2	1.58 ± 0.095	–
341.5 K, x2 = 0.4	1.55 ± 0.093	–
341.6 K, x2 = 0.8	1.27 ± 0.076	–
341.6 K, x2 = 0.9	1.16 ± 0.069	–
341.8 K, x2 = 0.2	1.59 ± 0.096	–
341.8 K, x2 = 0.6	1.39 ± 0.084	–
343 K, x2 = 0.2	–	2.1 ± 0.2 mPa·s
343 K, x2 = 0.4	–	4.4 ± 0.4 mPa·s
343 K, x2 = 0.6	–	6.1 ± 0.6 mPa·s
343 K, x2 = 0.8	–	9.5 ± 1 mPa·s
343 K, x2 = 0.9	–	14.3 ± 1.4 mPa·s
344.2 K, x2 = 0.4	1.59 ± 0.095	–
344.2 K, x2 = 0.6	1.43 ± 0.086	–
344.3 K, x2 = 0.9	1.19 ± 0.072	–
344.4 K, x2 = 0.2	1.62 ± 0.098	–
344.4 K, x2 = 0.8	1.32 ± 0.079	–
347 K, x2 = 0.6	1.47 ± 0.088	–
347.1 K, x2 = 0.8	1.36 ± 0.082	–
347.1 K, x2 = 0.9	1.25 ± 0.075	–
347.2 K, x2 = 0.2	1.64 ± 0.098	–
347.2 K, x2 = 0.4	1.6 ± 0.096	–
348.1 K, x2 = 0.2	–	2.1 ± 0.2 mPa·s
348.1 K, x2 = 0.4	–	3.9 ± 0.4 mPa·s
348.1 K, x2 = 0.6	–	5.6 ± 0.6 mPa·s
348.1 K, x2 = 0.8	–	8.5 ± 0.9 mPa·s
348.1 K, x2 = 0.9	–	13 ± 1.3 mPa·s
349.6 K, x2 = 0.2	1.66 ± 0.099	–
349.9 K, x2 = 0.9	1.3 ± 0.078	–
350 K, x2 = 0.4	1.62 ± 0.097	–
350 K, x2 = 0.6	1.5 ± 0.09	–
350 K, x2 = 0.8	1.4 ± 0.084	–
